“Also recorded” adds a separate entry of the source.

For data set [1], the system named is rat model of repeated sub-concussion. Briefly: Neuronal oxidative stress (8dOHG expression), rat model of repeated sub-concussion. The class given is in vivo, Female PVG rats. Conditions: rats, 12-week repeated sub-concussion. The source says: (§1) Female PVG rats aged 5-7 weeks were used. Under complete anaesthesia with isoflurane, a 25 g weight was dropped onto lambda of the skull from a 1 m height. This was repeated consecutively for 10 times per procedure. The procedure was repeated 3 times per week (i.e., Monday, Wednesday, Friday) for the duration of 12 weeks. Sham group rats received the same procedure without the weight drops. The probucol treatment group received probucol which was supplemented into the diet at 0.1% w/w. The HA-1 treatment group received HA-1 also in the diet at 0.2% w/w for the entire duration of the study.
The rats were then sacrificed to obtain brain tissue for further analyses.

The subject of data set [2] is diabetic db/db mice. Briefly: Plasma amyloid-β (Aβ40, Aβ42, oligomers, Aβ42/40 ratio) in diabetic db/db mice. The class given is in vivo. The source says: In this study, 4-5 week old diabetic db/db mice were put onto a diet containing probucol 0.1% (w/w) or HA-1 0.2% (w/w) for either 10 or 24 weeks, till the age of 14 or 28 weeks, respectively. Passive avoidance test was used to assess short-term memory. Subsequently, the mice were sacrificed to obtain plasma and brain tissue samples for further analyses. […]

Data set [3] relates to Neurodegenerated cells (Parkinson's disease model). Briefly: Adenosine triphosphate (ATP) assay, Parkinson's disease model. It is filed as cell-based, human. The note with it: PD model; probucol 20 μM, SPQ 10 μM, HA-1 10 μM, L-Dopa 50 μM, 24 hours. As for the experimental part:
Perinatal tissue derived human stem cell model for Parkinson's disease (PD) was prepared using proprietary protocols to test the effect of new drug entities. Drug treatment was for 24 hours in all the assays.
Impaired energy metabolism and reduced ATP levels are common features of PD. Using the stem cell derived PD model, we measured ATP levels in drug treated (probucol, SPQ and HA-1 and L-Dopa) cells and compared with neurodegenerated (ND) cells.
Neurodegenerated cells were incubated with probucol (20 μM), SPQ (10 μM), HA-1 (10 μM) and L-Dopa (50 μM) for 24 hours (p<0.05; *p<0.05, **p<0.001, ***p<0.0001, ns=non-significant, n=3).

In data set [4] the test system is Rats subjected to sub-concussion (SC). The experiment in a line: Rotarod test, brain injury (sub-concussion) study (Experimental Example 3). The class given is in vivo. The note with it: at 12 weeks (FIG. 14). The source says:
(§2) Repeated sub-concussive head impacts are reported to impair psychomotor function. Rats were subjected to sham procedure, sub-concussion (SC) with control diet (AlN93M), SC with probucol, SC with aged garlic extract (AGE), or SC with HA-1 for 12 weeks.
(§3) Both rotarod and beam walk tests assess neuromotor function. On beam walk, the higher the slips show the more impairment. On rotarod, the lower the latency indicates the more impairment.

For data set [5], the system named is diabetic db/db mice. Briefly: Passive avoidance test (short-term memory) in diabetic db/db mice (Experimental Example 7). The class given is in vivo. The note with it: 14 and 28 weeks of age, compared to the control mice. The source says: (§4) In this study, 4-5 week old diabetic db/db mice were put onto a diet containing probucol 0.1% (w/w) or HA-1 0.2% (w/w) for either 10 or 24 weeks, till the age of 14 or 28 weeks, respectively. Passive avoidance test was used to assess short-term memory. Subsequently, the mice were sacrificed to obtain plasma and brain tissue samples for further analyses.

For data set [6], the system named is Rats subjected to sub-concussion (SC). The experiment in a line: Beam walk test, brain injury (sub-concussion) study (Experimental Example 3). The class given is in vivo.
Source text: as §2, §3

For data set [7], the system named is diabetic db/db mice. The experiment in a line: Diabetic phenotype: plasma glucose, triglycerides, insulin, cholesterol in diabetic db/db mice. It is filed as in vivo. Conditions: for plasma cholesterol: 14 and 28 weeks of age (FIGS. 23G and 23H).
Source text: as §4
Elevation in plasma glucose, triglycerides and insulin are typical signs of diabetes, with cholesterol to lesser extent. Levels of plasma glucose, plasma triglyceride, plasma insulin, and plasma cholesterol levels were measured at 14 weeks of age and at 28 weeks of age (FIG. 23) (*p<0.05, **p<0.01, ***p<0.001, ****p<0.0001, n=12).

Data set [8] deals with rat model of repeated sub-concussion. Briefly: Beamwalk test, rat model of repeated sub-concussion (Experimental Example 6). It is filed as in vivo, Female PVG rats. Conditions: rats, 12-week repeated sub-concussion, 2 cm beam; probucol 0.1% w/w, HA-1 0.2% w/w in diet (FIG. 20B).
Source text: as §1
After the completion of 12-week sub-concussion procedures, neuromotor function was tested with established rotarod and beamwalk tests. On beamwalk, the higher the slips show, the more impairment. On rotarod, the lower the latency indicates the more impairment.

Data set [9] has as its system diabetic db/db mice. The experiment in a line: Oxidative stress and neuroinflammation (8dOHG, GFAP, Iba-1 expression) in diabetic db/db mice. The class given is in vivo. The note with it: for expression of 8dOHG in HPF: db/db mice (FIG. 28A); for expression of 8dOHG in CTX: db/db mice (FIG. 28B); for expression of GFAP in HPF: db/db mice (FIG. 28C); for expression of GFAP in CTX: db/db mice (FIG. 28D); for expression of Iba-1 in HPF: db/db mice (FIG. 28E); for expression of Iba-1 in CTX: db/db mice (FIG. 28F).
Source text: as §4
GFAP is a marker of astrocyte activation, which may confer anti-inflammatory effect.
Iba-1 expression indicates microglial activation, which is a surrogate marker of neuroinflammation.

Data set [10] deals with diabetic db/db mice. The experiment in a line: Passive Avoidance Test in diabetic db/db mice (Experimental Example 5). It is filed as in vivo. The note with it: administered from 5 weeks of age, tested at 14 weeks. As for the experimental part: Cognitive function in diabetic db/db mice was tested with Passive Avoidance and Novel Object Recognition tests. For both tests, the higher the value, the better the memory.
The mice were administered with either probucol, HA-1 or apoCIII antisense from 5 weeks of age, and cognitive performance was tested at 14 weeks of age.

The test system of data set [11] is Amniotic membrane mesenchymal stem cells (AM-MSCs). Briefly: Cytotoxicity study by MTT cell viability assay. The class given is cell-based, human. The note with it: 10-30 μM, 24 hours. As for the experimental part: Amniotic membrane mesenchymal stem cells (AM-MSCs) were incubated with different concentrations (10, 15, 20, 25 and 30 uM, and DMSO control) of (A) probucol, (B) SPQ, (C) HA-1, and (D) DMSO for 24 hours. D1=DMSO control for 10 μM, D2=DMSO control for 20 μM (p<0.05; *p<0.05, **p<0.001, ***p<0.0001, ns=non-significant, n=3).
Amniotic membrane mesenchymal stem cells (AM-MSCs) were incubated with different concentrations (10, 15, 20, 25 and 30 uM, and DMSO control) of (A) probucol, (B) SPQ, (C) HA-1 and, (D) DMSO for 24 hours. D1=DMSO control for 10 μM, D2=DMSO control for 20 μM (p<0.05; *p<0.05, **p<0.001, ***p<0.0001, ns=non-significant, n=3).

[12] abbreviates: sub-concussion, 1, 2 and 3 cm beam, at 12 weeks.
Setting [13] is: sub-concussion, 2 cm beam, after 6 weeks.
Setting [14] is: 14 weeks of age, probucol 0.1% (w/w), HA-1 0.2% (w/w) in diet.
[15] abbreviates: Experimental Example 1 (FIG. 1).
[16] abbreviates: Experimental Example 2 (FIG. 8).

Take `CC(=O)O[C@@H]1CC[C@@]2(C)[C@H](CC[C@@H]3[C@@H]2CC[C@]2(C)[C@@H]([C@H](C)CCC(=O)Oc4c(C(C)(C)C)cc(SC(C)(C)Sc5cc(C(C)(C)C)c(O)c(C(C)(C)C)c5)cc4C(C)(C)C)CC[C@@H]32)C1` [HA-1, 2,6-di-tert-butyl-4-((2-((3,5-di-tert-butyl-4-hydroxyphenyl)thio)propan-2-yl)thio)phenyl (4R)-4-[(3R,5R,8R,9S,10S,13R,14S,17R)-3-acetoxy-10,13-dimethyl-2,3,4,5,6,7,8,9,11,12,14,15,16,17-tetradecahydro-1H-cyclopenta[a]phenanthren-17-yl]pentanoate]: the “expression of 8dOHG (oxidative stress) in HPF and CTX” value in data set [1] was “substantially attenuated the cerebral oxidative stress levels”. In data set [2] (14 weeks of age), the Aβ42/40 ratio entry was “remarkably reduced”, the “plasma Aβ40” value is recorded as “did not change plasma Aβ40 levels”, the “plasma Aβ42” value is listed as “remarkably attenuated” and the “plasma concentrations of Aβ oligomers” value is “significantly reduced”. Besides, in [2] (28 weeks of age), the Aβ42/40 ratio entry is listed as “remarkably reduced”, the “plasma Aβ40” value is reported as “increased plasma Aβ40 levels”, the “plasma Aβ42” value was “significantly reduced” and the “plasma concentrations of Aβ oligomers” value was “significantly reduced”. Also, the ATP level entry in [3] is listed as “Enhanced increase in ATP levels”. Moreover, the “rotarod latency (average)” value in [4] is “significantly increased the latency”. The “passive avoidance latency (short-term memory)” value in data set [5] is on record as “significantly increased the latency”. The “number of slips in beam walk test” value in data set [6] (setting [12]) is recorded as “did not show significant preventative effects”. In [6] (setting [13]), the “number of slips in beam walk test” value is reported as “significant reduction in slips”. The plasma cholesterol entry in [7] is on record as “no beneficial effects on plasma cholesterol”. In [7] (14 weeks of age), the plasma insulin result is “significantly reduced” and the plasma triglycerides result is “significantly attenuated plasma triglycerides”. In addition, the “plasma / blood glucose” value in [7] (setting [14]) is “modest decrease in blood glucose”. Further, in [7] (28 weeks of age), the “plasma / blood glucose” value is listed as “significantly reduced blood glucose with HA-1 presenting greater effects”, the plasma insulin entry is on record as “lost the ameliorative effects on insulin” and the plasma triglycerides entry is on record as “significantly reduced plasma triglycerides”. For the same molecule, the “foot slips in beamwalk test” value in data set [8] was “completely normalised”. In data set [9], the “expression of 8dOHG in HPF” value was “better efficacy particularly in HPF”, the “expression of 8dOHG in CTX” value was “attenuated”, the “expression of GFAP in HPF” value is on record as “significant recovery” and the “expression of GFAP in CTX” value is on record as “ameliorated similarly”. In addition, in [9], the “expression of Iba-1 in HPF” value is recorded as “substantially reduced the expression of Iba-1” and the “expression of Iba-1 in CTX” value is listed as “substantially reduced the expression of Iba-1”. Further, the “Passive Avoidance Test latency (short-term memory)” value in [10] was “completely restore the memory; also recorded: equivalent latency to Neg control and probucol group mice”.
Consider `CC1(C)SC2(C=C(C(C)(C)C)C(=O)C(C(C)(C)C)=C2)C2(C=C(C(C)(C)C)C(=O)C(C(C)(C)C)=C2)S1` [SPQ, 2,4,9,11-tetrakis(1,1-dimethylethyl)-14,14-dimethyl-13,15-dithiadispiro[5.0.5.3]pentadeca-1,4,8,11-tetraene-3,10-dione], for which the ATP level entry in [3] is listed as “Enhanced increase in ATP levels”. Further, the “cytotoxicity by MTT cell viability assay” value in data set [11] (setting [15]) and in [11] (setting [16]) was “not toxic to the cells” throughout.
In the case of `CC(C)(Sc1cc(C(C)(C)C)c(O)c(C(C)(C)C)c1)Sc1cc(C(C)(C)C)c(O)c(C(C)(C)C)c1` [probucol, 2,6-ditert-butyl-4-[2-(3,5-ditert-butyl-4-hydroxyphenyl)sulfanylpropan-2-ylsulfanyl]phenol], the “expression of 8dOHG (oxidative stress) in HPF and CTX” value in data set [1] is “some increase of 8dOHG particularly in the CTX”. In addition, in data set [2] (14 weeks of age), the “plasma Aβ40” value was “did not change plasma Aβ40 levels”, the “plasma Aβ42” value is “no beneficial effect” and the “plasma concentrations of Aβ oligomers” value was “not observed”. The “plasma concentrations of Aβ oligomers” value in [2] (28 weeks of age) was “not observed”. The “number of slips in beam walk test” value in data set [6] (setting [12]) is on record as “did not show significant preventative effects”. In addition, the “number of slips in beam walk test” value in data set [6] (setting [13]) is on record as “did not indicate any beneficial effects”. The plasma cholesterol result in data set [7] is recorded as “no beneficial effects on plasma cholesterol”. In data set [7] (14 weeks of age), the plasma insulin entry was “significantly reduced” and the plasma triglycerides entry is given as “significantly attenuated plasma triglycerides”. The “plasma / blood glucose” value in data set [7] (setting [14]) is reported as “no significant effects”. Besides, in [7] (28 weeks of age), the “plasma / blood glucose” value is reported as “significantly reduced blood glucose”, the plasma insulin result is given as “lost the ameliorative effects on insulin” and the plasma triglycerides entry is listed as “significantly reduced plasma triglycerides”. For the same molecule, in data set [11] (setting [15]), the “cytotoxicity by MTT cell viability assay” value was “not toxic to the cells”. Also, in data set [11] (setting [16]), the “cytotoxicity by MTT cell viability assay” value was “not toxic to the cells”. In data set [8], the “foot slips in beamwalk test” value was “modestly attenuated”. Moreover, in data set [9], the “expression of 8dOHG in HPF” value is recorded as “attenuated”, the “expression of 8dOHG in CTX” value is given as “attenuated”, the “expression of GFAP in HPF” value is listed as “no benefits” and the “expression of GFAP in CTX” value is reported as “ameliorated similarly”. Also, in [9], the “expression of Iba-1 in HPF” value is reported as “no beneficial effects” and the “expression of Iba-1 in CTX” value is recorded as “no beneficial effects”. The “Passive Avoidance Test latency (short-term memory)” value in data set [10] is “completely prevented the memory loss”.
